Data reported in publication PMC3057119 (Bioorganic & medicinal chemistry letters, 2011).

Test system: p53-dependent luciferase reporter in U2OS cells
Experiment: p53-dependent luciferase reporter activation
Format: cell-based
Conditions: U2OS cells stably expressing p53-dependent luciferase reporter, 5 μM

## COc1ccc(C2=N[C@@H](c3ccc(Cl)cc3)[C@@H](c3ccc(Cl)cc3)N2C(=O)N2CCNC(=O)C2)c(OC(C)C)c1 [Nutlin-3, nutlin-3]
  increase in luciferase activation: 4 fold
